Assay results from publication PMC9229919, “4-Aminoquinoline-Based Adamantanes as Potential Anticholinesterase Agents in Symptomatic Treatment of Alzheimer’s Disease” (Pharmaceutics, 2022).
Where two headings read alike, the source gives them in different places.

Tests used:
purified human BChE = target: T1, purified human BChE (Homo sapiens, UniProt P06276); assay: biochemical; format: biochemical
T1 construct: possibly also a gift of Dr Florian Nachon (the sentence is ambiguous)
Protocol: (§1) Acetylthiocholine (ATCh) and 5,5′-dithiobis(2-nitrobenzoic acid) (DTNB) were purchased from Sigma-Aldrich, St. Louis, MO, USA. ATCh was dissolved in water and DTNB in 0.1 M sodium phosphate buffer (pH 7.4). The 4-aminoquinilines were dissolved in DMSO and all further dilutions were made in water.
(§2) The sources of AChE and BChE were purified human BChE and recombinant human AChE that was kindly provided by Dr Florian Nachon (Département de Toxicologie, Armed Forces Biomedical Research Institute, Brétigny-sur-Orge, France). […] The enzymes were diluted in sodium phosphate buffer 0.1 M (pH 7.4) containing 0.1% BSA.
(§3) Enzyme activities were measured spectrophotometrically using a slightly modified Ellman method, as described earlier. […] At least three inhibitor concentrations for each substrate concentration were used in at least three experiments. The apparent inhibition constant (Ki,app) was calculated using the Hunter–Downs Equation and linear regression analysis:(1) Ki,app=vi·i/v0−vi=Ki+Ki/KS·s where the y-intercept determines the enzyme-inhibitor dissociation constant (Ki), while the x-intercept determines the enzyme-substrate dissociation constant, KS.
(§4) The Hunter–Downs Equation was used under the assumption that the substrate, due to relatively low concentrations used in experiments, would bind only to the catalytic site of the enzymes, while the inhibitors would bind to both CAS and/or PAs. This allowed the type of inhibition to be determined from Ki,app vs. substrate concentration ([S]) dependency on Hunter–Downs plot.
(§5) The final content of DMSO in the measurements was up to 0.2%. […] The measurements were performed at 25 °C on a Tecan Infinite M200Pro plate reader (Tecan Austria GmbH, Salzburg, Austria).

recombinant human AChE = target: T2, recombinant human AChE (Homo sapiens, UniProt P22303); assay: biochemical; format: biochemical; conditions: for IS: IS = Ki(BChE)/Ki(AChE), IS > 1 selective to AChE
T2 construct: gift of Dr Florian Nachon (Armed Forces Biomedical Research Institute, Brétigny-sur-Orge, France)
Protocol: as §1, §2, §3, §4, §5

[1] = Ferric reducing antioxidant power (FRAP) assay; conditions: mean ± standard error of three experiments;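 note: expressed as µM Fe2+ equivalents from an FeSO4·7H2O standard curve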
Protocol: . All the chemicals were purchased from Sigma-Aldrich (St. Louis, MO, USA), except for tripyridyltriazine (TPTZ) (Fluka, Buchs, Switzerland) and FeCl3 (Kemika, Zagreb, Croatia). The FRAP assay was assessed according to Benzie and Strain [53] with slight procedure adjustments for 96-well microplates. The method is based on the reduction of the ferric-tripyridyltriazine (Fe^3+-TPTZ) complex to ferrous tripyridyltriazine (Fe^2+-TPTZ) by the action of electron-donating compounds at a low pH. Briefly, the FRAP reagent was prepared by mixing acetate buffer (300 mM, pH 3.6), a solution of 10 mM TPTZ in 40 mM HCl, and 20 mM FeCl3 at 10:1:1 (v/v/v). Then, 240 μL of FRAP reagent and 10 μL of sample solution were added to a 96-well plate and incubated at 37 °C for 60 min. The absorbance was measured at 593 nm using a microplate reader (Infinite M200PRO, Tecan Austria GmbH, Salzburg, Austria) against a blank. The reducing capacity was determined for 10 and 100 µM compound concentrations. […]. All measurements were performed in three independent experiments. FRAP values, denominating the reduction of ferric-tripyridyltriazine (Fe^3+-TPTZ) to ferrous tripyridyltriazine (Fe^2+-TPTZ) by 4-aminoquinolines were calculated based on a standard curve obtained using […].

[2] = Reverse-phase thin-layer chromatographic lipophilicity (RF, RM0); format: physicochemical; conditions: for RM0: intercept of RM = RM0 + bC; for b: slope of RM = RM0 + bC; for RF, Methanol/Water/Hydrochloric acid (conc.), mobile phase I / RF, Dioxane/Water/Hydrochloric acid (conc.), mobile phase II / RF, Methanol/Water/Hydrochloric acid (conc.), mobile phase II / RF, Acetone/Water/Hydrochloric acid (conc.), mobile phase III / RF, Dioxane/Water/Hydrochloric acid (conc.), mobile phase III / RF, Methanol/Water/Hydrochloric acid (conc.), mobile phase III / RF, Dioxane/Water/Hydrochloric acid (conc.), mobile phase IV / RF, Acetone/Water/Hydrochloric acid (conc.), mobile phase IV / RF, Methanol/Water/Hydrochloric acid (conc.), mobile phase IV / RF, Acetone/Water/Hydrochloric acid (conc.), mobile phase IX / RF, Methanol/Water/Hydrochloric acid (conc.), mobile phase IX / RF, Dioxane/Water/Hydrochloric acid (conc.), mobile phase V / RF, Acetone/Water/Hydrochloric acid (conc.), mobile phase V / RF, Methanol/Water/Hydrochloric acid (conc.), mobile phase V / RF, Dioxane/Water/Hydrochloric acid (conc.), mobile phase VI / RF, Acetone/Water/Hydrochloric acid (conc.), mobile phase VI / RF, Methanol/Water/Hydrochloric acid (conc.), mobile phase VI / RF, Acetone/Water/Hydrochloric acid (conc.), mobile phase VII / RF, Methanol/Water/Hydrochloric acid (conc.), mobile phase VII / RF, Acetone/Water/Hydrochloric acid (conc.), mobile phase VIII / RF, Methanol/Water/Hydrochloric acid (conc.), mobile phase VIII / RF, Acetone/Water/Hydrochloric acid (conc.), mobile phase I / RF, Dioxane/Water/Hydrochloric acid (conc.), mobile phase I / RF, Acetone/Water/Hydrochloric acid (conc.), mobile phase II: RP-18 silica; for RF, Methanol/Water/Hydrochloric acid (conc.), mobile phase I: I = 90%MeOH/5%H2O/5%HCl; for RF, Dioxane/Water/Hydrochloric acid (conc.), mobile phase II: II = 80%Dioxane/15%H2O/5%HCl; for RF, Methanol/Water/Hydrochloric acid (conc.), mobile phase II: II = 85%MeOH/10%H2O/5%HCl; for RF, Acetone/Water/Hydrochloric acid (conc.), mobile phase III: III = 70%AC/25%H2O/5%HCl; for RF, Dioxane/Water/Hydrochloric acid (conc.), mobile phase III: III = 70%Dioxane/25%H2O/5%HCl; for RF, Methanol/Water/Hydrochloric acid (conc.), mobile phase III: III = 80%MeOH/15%H2O/5%HCl; for RF, Dioxane/Water/Hydrochloric acid (conc.), mobile phase IV: IV = 60%Dioxane/35%H2O/5%HCl; for RF, Acetone/Water/Hydrochloric acid (conc.), mobile phase IV: IV = 65%AC/30%H2O/5%HCl; for RF, Methanol/Water/Hydrochloric acid (conc.), mobile phase IV: IV = 75%MeOH/20%H2O/5%HCl; for RF, Acetone/Water/Hydrochloric acid (conc.), mobile phase IX: IX = 40%AC/55%H2O/5%HCl; for RF, Methanol/Water/Hydrochloric acid (conc.), mobile phase IX: IX = 50%MeOH/45%H2O/5%HCl; for RF, Dioxane/Water/Hydrochloric acid (conc.), mobile phase V: V = 50%Dioxane/45%H2O/5%HCl; for RF, Acetone/Water/Hydrochloric acid (conc.), mobile phase V: V = 60%AC/35%H2O/5%HCl; for RF, Methanol/Water/Hydrochloric acid (conc.), mobile phase V: V = 70%MeOH/25%H2O/5%HCl; for RF, Dioxane/Water/Hydrochloric acid (conc.), mobile phase VI: VI = 40%Dioxane/55%H2O/5%HCl; for RF, Acetone/Water/Hydrochloric acid (conc.), mobile phase VI: VI = 55%AC/40%H2O/5%HCl; for RF, Methanol/Water/Hydrochloric acid (conc.), mobile phase VI: VI = 65%MeOH/30%H2O/5%HCl; for RF, Acetone/Water/Hydrochloric acid (conc.), mobile phase VII: VII = 50%AC/45%H2O/5%HCl; for RF, Methanol/Water/Hydrochloric acid (conc.), mobile phase VII: VII = 60%MeOH/35%H2O/5%HCl; for RF, Acetone/Water/Hydrochloric acid (conc.), mobile phase VIII: VIII = 45%AC/50%H2O/5%HCl; for RF, Methanol/Water/Hydrochloric acid (conc.), mobile phase VIII: VIII = 55%MeOH/40%H2O/5%HCl; for RF, Acetone/Water/Hydrochloric acid (conc.), mobile phase I: I = 80%AC/15%H2O/5%HCl; for RF, Dioxane/Water/Hydrochloric acid (conc.), mobile phase I: I = 90%Dioxane/5%H2O/5%HCl; for RF, Acetone/Water/Hydrochloric acid (conc.), mobile phase II: II = 75%AC/20%H2O/5%HCl
Protocol: Chromatographic determination of lipophilicity
Merck, Darmstadt, Germany). The mobile phase contained organic modifier (methanol, acetone or dioxane), water and hydrochloric acid.
Methanol was varied in the range […]
with an increment of 10%. […]
before chromatogram development. The solvent developing distance was 4.5 cm. Detection of […]
All experiments were performed at ambient temperature (22±2 °C). Retention parameters were calculated as previously described. […]

[3] = logarithm of Ki in µM, BChE, dependent variable of the QSAR model, read-out: Y Measured 2 log(ki)Bche, log (Ki/µM BChE) (converted)
[4] = ± standard error, 25 °C, ATCh substrate, read-out: Ki BChE
[5] = log (Ki/µM AChE), read-out: Y Measured 1 log(ki)Ache (converted)
[6] = ± standard error, 25 °C, ATCh substrate, read-out: Ki AChE
[7] = Acetone/Water/Hydrochloric acid (conc.)
[8] = Dioxane/Water/Hydrochloric acid (conc.)
[9] = Methanol/Water/Hydrochloric acid (conc.)

T2 sequence (P22303 32-614): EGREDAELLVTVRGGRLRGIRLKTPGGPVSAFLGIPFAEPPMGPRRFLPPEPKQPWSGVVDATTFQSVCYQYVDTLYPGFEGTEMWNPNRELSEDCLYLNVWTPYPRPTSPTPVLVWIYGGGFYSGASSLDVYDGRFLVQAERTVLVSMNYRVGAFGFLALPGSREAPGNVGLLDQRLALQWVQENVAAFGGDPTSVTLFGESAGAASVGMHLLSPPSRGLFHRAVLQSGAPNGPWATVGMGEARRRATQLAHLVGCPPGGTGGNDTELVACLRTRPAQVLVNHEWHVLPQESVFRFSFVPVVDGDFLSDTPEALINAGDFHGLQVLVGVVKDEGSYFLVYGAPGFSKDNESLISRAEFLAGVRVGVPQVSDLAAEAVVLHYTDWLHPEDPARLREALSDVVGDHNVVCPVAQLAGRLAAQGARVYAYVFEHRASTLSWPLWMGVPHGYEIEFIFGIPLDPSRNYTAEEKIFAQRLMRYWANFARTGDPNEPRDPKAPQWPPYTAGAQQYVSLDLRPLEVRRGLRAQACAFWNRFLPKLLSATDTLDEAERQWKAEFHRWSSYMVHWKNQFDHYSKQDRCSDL
T1 sequence (P06276 29-602): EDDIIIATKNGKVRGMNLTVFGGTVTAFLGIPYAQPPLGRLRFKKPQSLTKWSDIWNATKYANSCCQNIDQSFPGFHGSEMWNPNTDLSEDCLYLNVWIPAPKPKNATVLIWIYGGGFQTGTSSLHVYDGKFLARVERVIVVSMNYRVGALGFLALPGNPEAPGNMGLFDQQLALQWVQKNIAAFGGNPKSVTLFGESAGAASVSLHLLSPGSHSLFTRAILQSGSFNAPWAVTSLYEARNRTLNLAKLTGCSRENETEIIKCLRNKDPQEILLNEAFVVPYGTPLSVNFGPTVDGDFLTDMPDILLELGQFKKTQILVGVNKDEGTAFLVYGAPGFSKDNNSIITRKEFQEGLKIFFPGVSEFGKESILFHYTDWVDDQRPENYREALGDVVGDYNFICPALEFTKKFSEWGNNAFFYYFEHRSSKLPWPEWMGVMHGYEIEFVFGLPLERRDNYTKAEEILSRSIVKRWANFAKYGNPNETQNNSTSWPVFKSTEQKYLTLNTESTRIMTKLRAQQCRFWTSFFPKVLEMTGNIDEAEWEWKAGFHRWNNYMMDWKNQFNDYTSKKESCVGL

Row | SMILES | Ki (purified human BChE; [4]) | IS (recombinant human AChE) | Ki (recombinant human AChE; [6]) | FRAP ([1]; 10 µM compound) | FRAP ([1]; 100 µM compound) | RM0 [2, 7] | b [2, 7] | RM0 [2, 8] | b [2, 8] | RM0 [2, 9] | b [2, 9] | RF, Methanol/Water/Hydrochloric acid (conc.), mobile phase I [2] | RF, Dioxane/Water/Hydrochloric acid (conc.), mobile phase II [2] | RF, Methanol/Water/Hydrochloric acid (conc.), mobile phase II [2] | RF, Acetone/Water/Hydrochloric acid (conc.), mobile phase III [2] | RF, Dioxane/Water/Hydrochloric acid (conc.), mobile phase III [2] | RF, Methanol/Water/Hydrochloric acid (conc.), mobile phase III [2] | RF, Dioxane/Water/Hydrochloric acid (conc.), mobile phase IV [2] | RF, Acetone/Water/Hydrochloric acid (conc.), mobile phase IV [2] | RF, Methanol/Water/Hydrochloric acid (conc.), mobile phase IV [2] | other results
1 | Clc1ccc2c(NCCNCCC34CC5CC(CC(C5)C3)C4)ccnc2c1 [Compound 8] | 0.92 ± 0.07 µM | 0.6 | 1.6 ± 0.1 µM | 33 ± 12 µM | 62 ± 7 µM | 2.227 | 3.421 | 1.144 | 2.1084 | 2.713 | 3.446 | 0.69 | 0.74 | 0.63 | 0.55 | 0.68 | 0.45 | 0.66 | 0.5 | 0.47 | Ki (purified human BChE; [3]): 0.92 µM; Ki (recombinant human AChE; [5]): 1.6 µM; RF, Acetone/Water/Hydrochloric acid (conc.), mobile phase IX [2]: 0.08; RF, Methanol/Water/Hydrochloric acid (conc.), mobile phase IX [2]: 0.08; RF, Dioxane/Water/Hydrochloric acid (conc.), mobile phase V [2]: 0.47; RF, Acetone/Water/Hydrochloric acid (conc.), mobile phase V [2]: 0.39; RF, Methanol/Water/Hydrochloric acid (conc.), mobile phase V [2]: 0.39; RF, Dioxane/Water/Hydrochloric acid (conc.), mobile phase VI [2]: 0.28; RF, Acetone/Water/Hydrochloric acid (conc.), mobile phase VI [2]: 0.34; RF, Methanol/Water/Hydrochloric acid (conc.), mobile phase VI [2]: 0.28; RF, Acetone/Water/Hydrochloric acid (conc.), mobile phase VII [2]: 0.29; RF, Methanol/Water/Hydrochloric acid (conc.), mobile phase VII [2]: 0.18; RF, Acetone/Water/Hydrochloric acid (conc.), mobile phase VIII [2]: 0.21; RF, Methanol/Water/Hydrochloric acid (conc.), mobile phase VIII [2]: 0.13
2 | Clc1ccc2c(NCCN(CCC34CC5CC(CC(C5)C3)C4)CCC34CC5CC(CC(C5)C3)C4)ccnc2c1 [Compound 9] | 1.5 ± 0.2 µM | 0.3 | 5.2 ± 0.2 µM | 3.4 ± 0.0 µM | 29 ± 6 µM | 3.559 | 4.683 | 2.268 | 3.179 | 5.446 | 5.91 | 0.44 | 0.65 | 0.31 | 0.33 | 0.55 | 0.11 | 0.42 | 0.28 | 0.1 | Ki (purified human BChE; [3]): 1.5 µM; Ki (recombinant human AChE; [5]): 5.2 µM; RF, Acetone/Water/Hydrochloric acid (conc.), mobile phase I [2]: 0.58; RF, Dioxane/Water/Hydrochloric acid (conc.), mobile phase I [2]: 0.75; RF, Acetone/Water/Hydrochloric acid (conc.), mobile phase II [2]: 0.5; RF, Acetone/Water/Hydrochloric acid (conc.), mobile phase IX [2]: 0; RF, Methanol/Water/Hydrochloric acid (conc.), mobile phase IX [2]: 0; RF, Dioxane/Water/Hydrochloric acid (conc.), mobile phase V [2]: 0.11; RF, Acetone/Water/Hydrochloric acid (conc.), mobile phase V [2]: 0.13; RF, Methanol/Water/Hydrochloric acid (conc.), mobile phase V [2]: 0.05; RF, Dioxane/Water/Hydrochloric acid (conc.), mobile phase VI [2]: 0; RF, Acetone/Water/Hydrochloric acid (conc.), mobile phase VI [2]: 0.09; RF, Methanol/Water/Hydrochloric acid (conc.), mobile phase VI [2]: 0.01; RF, Acetone/Water/Hydrochloric acid (conc.), mobile phase VII [2]: 0; RF, Methanol/Water/Hydrochloric acid (conc.), mobile phase VII [2]: 0; RF, Acetone/Water/Hydrochloric acid (conc.), mobile phase VIII [2]: 0; RF, Methanol/Water/Hydrochloric acid (conc.), mobile phase VIII [2]: 0
3 | Clc1ccc2c(NCCCCN(CCC34CC5CC(CC(C5)C3)C4)CCC34CC5CC(CC(C5)C3)C4)ccnc2c1 [Compound 10] | 1 ± 0.1 µM | 0.4 | 2.4 ± 0.2 µM | 13 ± 4 µM | 90 ± 6 µM | 3.647 | 4.824 | 1.984 | 2.852 | 5.456 | 5.91 | 0.44 | 0.65 | 0.31 | 0.33 | 0.59 | 0.1 | 0.47 | 0.28 | 0.1 | RF, Acetone/Water/Hydrochloric acid (conc.), mobile phase I [2]: 0.59; RF, Dioxane/Water/Hydrochloric acid (conc.), mobile phase I [2]: 0.75; RF, Acetone/Water/Hydrochloric acid (conc.), mobile phase II [2]: 0.52; RF, Acetone/Water/Hydrochloric acid (conc.), mobile phase IX [2]: 0; RF, Methanol/Water/Hydrochloric acid (conc.), mobile phase IX [2]: 0; RF, Dioxane/Water/Hydrochloric acid (conc.), mobile phase V [2]: 0.14; RF, Acetone/Water/Hydrochloric acid (conc.), mobile phase V [2]: 0.13; RF, Methanol/Water/Hydrochloric acid (conc.), mobile phase V [2]: 0.05; RF, Dioxane/Water/Hydrochloric acid (conc.), mobile phase VI [2]: 0; RF, Acetone/Water/Hydrochloric acid (conc.), mobile phase VI [2]: 0.09; RF, Methanol/Water/Hydrochloric acid (conc.), mobile phase VI [2]: 0.01; RF, Acetone/Water/Hydrochloric acid (conc.), mobile phase VII [2]: 0; RF, Methanol/Water/Hydrochloric acid (conc.), mobile phase VII [2]: 0; RF, Acetone/Water/Hydrochloric acid (conc.), mobile phase VIII [2]: 0; RF, Methanol/Water/Hydrochloric acid (conc.), mobile phase VIII [2]: 0
